{
  "source": "patent US11896573B2",
  "about": "“Pharmaceutical compositions and pharmacokinetics of a gamma-hydroxybutyric acid derivative” (priority 2020, dated 2024)",
  "experiment": "Multiple ascending dose study, plasma pharmacokinetics of Compound (1) and GHB",
  "format": "in vivo, human",
  "method": "The plasma concentrations of Compound (1) and GHB in plasma in healthy human subjects were measured using liquid chromatography tandem mass-spectroscopy and evaluated using PHOENIX™ WINNONLIN® version 8.1 (Pharsight Corporation, USA) and MICROSOFT® EXCEL® (Microsoft Corporation, USA).\nAll randomized subjects who received Compound (1), with available pharmacokinetic (PK) data and without relevant deviations interfering with the PK evaluations, were included. Subjects who received only placebo were excluded from the PK population. In addition, the PK population was used for the summaries and analyses of all PK data.\nA multiple ascending dose study was undertaken to evaluate the pharmacokinetics of multiple doses of Compound (1) in 3 cohorts of healthy subjects (with 8 subjects/cohort). Within each cohort, the subjects were randomized to receive Compound (1) or placebo at a ratio of 6:2 (active: placebo) for 7 days (or up to 9 days if the cohort included a titration period).\nAfter fasting for at least 3 hours following a standard meal, subjects were randomized on Day 1 and the first dose of study drug (either target dose or titration dose) was administered. The first cohort of subjects (Cohort 8) received the second dose administration at approximately four hours after receiving the first dose. The subsequent […] cohorts (Cohorts 9 and 10) received only one dose per day.\nFor the first cohort (Cohort 8), the dose used was 6.0 g divided into two equal doses four hours apart for 7 days starting from Day 4 “Dose Day 1” to Day 10 “Dose Day 7”. Subsequent Cohorts 9, 10 received a single daily dose of 4.5 g and 6.0 g during the titration period (Day 1 for Cohort 9, Day 1 and Day 2 for Cohort 10, and after a titration period for 7 days starting from Day 4 “Dose Day 1” to Day 10 “Dose Day 7”. Cohort 11 was not conducted due to API availability.",
  "key": {"[1]": {"conditions": "Cohort 8 (6.0 g/day divided into equal 2 doses), Dosing Day 4"}, "[2]": {"conditions": "Cohort 8 (6.0 g/day divided into equal 2 doses), Dosing Day 10"}, "[3]": {"conditions": "Cohort 9 (4.5 g/day in a single dose), Dosing Day 4"}, "[4]": {"conditions": "Cohort 9 (4.5 g/day in a single dose), Dosing Day 10"}, "[5]": {"conditions": "Cohort 10 (6.0 g/day in a single dose), Dosing Day 4"}},
  "data": [
    {"molecule": "CC(C)[C@H](N)C(=O)OCCCC(=O)O", "note": "[Compound (1), 4-((L-valyl)oxy)butanoic acid]", "values": [
      {"measurement": "Compound (1) CL/F, Max", "setting": "[1]", "result": 597, "unit": "L/h"},
      {"measurement": "Compound (1) CL/F, Mean", "setting": "[1]", "result": 431, "unit": "L/h"},
      {"measurement": "Compound (1) CL/F, Median", "setting": "[1]", "result": 405, "unit": "L/h"},
      {"measurement": "Compound (1) CL/F, Min", "setting": "[1]", "result": 315, "unit": "L/h"},
      {"measurement": "Compound (1) plasma AUC0-inf, Max", "setting": "[1]", "result": 19100, "unit": "ng·h/mL"},
      {"measurement": "Compound (1) plasma AUC0-inf, Min", "setting": "[1]", "result": 10100, "unit": "ng·h/mL"},
      {"measurement": "Compound (1) plasma AUC0-tlast, Max", "setting": "[1]", "result": 19000, "unit": "ng·h/mL"},
      {"measurement": "Compound (1) plasma AUC0-tlast, Min", "setting": "[1]", "result": 10000, "unit": "ng·h/mL"},
      {"measurement": "Compound (1) plasma Cmax, Max", "setting": "[1]", "result": 16700, "unit": "ng/mL"},
      {"measurement": "Compound (1) plasma Cmax, Min", "setting": "[1]", "result": 9600, "unit": "ng/mL"},
      {"measurement": "Compound (1) plasma T1/2, Max", "setting": "[1]", "result": 112, "unit": "min"},
      {"measurement": "Compound (1) plasma T1/2, Min", "setting": "[1]", "result": 13.2, "unit": "min"},
      {"measurement": "Compound (1) plasma Tmax, Max", "setting": "[1]", "result": 270, "unit": "min"},
      {"measurement": "Compound (1) CL/F, Max", "setting": "[2]", "result": 569, "unit": "L/h"},
      {"measurement": "Compound (1) CL/F, Mean", "setting": "[2]", "result": 430, "unit": "L/h"},
      {"measurement": "Compound (1) CL/F, Median", "setting": "[2]", "result": 430, "unit": "L/h"},
      {"measurement": "Compound (1) CL/F, Min", "setting": "[2]", "result": 280, "unit": "L/h"},
      {"measurement": "Compound (1) plasma AUC0-inf, Max", "setting": "[2]", "result": 21500, "unit": "ng·h/mL"},
      {"measurement": "Compound (1) plasma AUC0-inf, Min", "setting": "[2]", "result": 10700, "unit": "ng·h/mL"},
      {"measurement": "Compound (1) plasma AUC0-tlast, Max", "setting": "[2]", "result": 21400, "unit": "ng·h/mL"},
      {"measurement": "Compound (1) plasma AUC0-tlast, Min", "setting": "[2]", "result": 10500, "unit": "ng·h/mL"},
      {"measurement": "Compound (1) plasma Cmax, Max", "setting": "[2]", "result": 17000, "unit": "ng/mL"},
      {"measurement": "Compound (1) plasma Cmax, Min", "setting": "[2]", "result": 8700, "unit": "ng/mL"},
      {"measurement": "Compound (1) plasma T1/2, Max", "setting": "[2]", "result": 31.2, "unit": "min"},
      {"measurement": "Compound (1) plasma T1/2, Min", "setting": "[2]", "result": 14.4, "unit": "min"},
      {"measurement": "Compound (1) plasma Tmax, Max", "setting": "[2]", "result": 285, "unit": "min"},
      {"measurement": "Compound (1) CL/F, Max", "setting": "[3]", "result": 406, "unit": "L/h"},
      {"measurement": "Compound (1) CL/F, Mean", "setting": "[3]", "result": 378, "unit": "L/h"},
      {"measurement": "Compound (1) CL/F, Median", "setting": "[3]", "result": 382, "unit": "L/h"},
      {"measurement": "Compound (1) CL/F, Min", "setting": "[3]", "result": 338, "unit": "L/h"},
      {"measurement": "Compound (1) plasma AUC0-inf, Max", "setting": "[3]", "result": 13300, "unit": "ng·h/mL"},
      {"measurement": "Compound (1) plasma AUC0-inf, Min", "setting": "[3]", "result": 11100, "unit": "ng·h/mL"},
      {"measurement": "Compound (1) plasma AUC0-tlast, Max", "setting": "[3]", "result": 13200, "unit": "ng·h/mL"},
      {"measurement": "Compound (1) plasma AUC0-tlast, Min", "setting": "[3]", "result": 8300, "unit": "ng·h/mL"},
      {"measurement": "Compound (1) plasma Cmax, Max", "setting": "[3]", "result": 17800, "unit": "ng/mL"},
      {"measurement": "Compound (1) plasma Cmax, Min", "setting": "[3]", "result": 10500, "unit": "ng/mL"},
      {"measurement": "Compound (1) plasma T1/2, Max", "setting": "[3]", "result": 40.8, "unit": "min"},
      {"measurement": "Compound (1) plasma T1/2, Min", "setting": "[3]", "result": 16.8, "unit": "min"},
      {"measurement": "Compound (1) CL/F, Max", "setting": "[4]", "result": 488, "unit": "L/h"},
      {"measurement": "Compound (1) CL/F, Mean", "setting": "[4]", "result": 423, "unit": "L/h"},
      {"measurement": "Compound (1) CL/F, Median", "setting": "[4]", "result": 443, "unit": "L/h"},
      {"measurement": "Compound (1) CL/F, Min", "setting": "[4]", "result": 323, "unit": "L/h"},
      {"measurement": "Compound (1) plasma AUC0-inf, Max", "setting": "[4]", "result": 13900, "unit": "ng·h/mL"},
      {"measurement": "Compound (1) plasma AUC0-inf, Min", "setting": "[4]", "result": 9200, "unit": "ng·h/mL"},
      {"measurement": "Compound (1) plasma AUC0-tlast, Max", "setting": "[4]", "result": 13800, "unit": "ng·h/mL"},
      {"measurement": "Compound (1) plasma AUC0-tlast, Min", "setting": "[4]", "result": 9100, "unit": "ng·h/mL"},
      {"measurement": "Compound (1) plasma Cmax, Max", "setting": "[4]", "result": 17800, "unit": "ng/mL"},
      {"measurement": "Compound (1) plasma Cmax, Min", "setting": "[4]", "result": 9300, "unit": "ng/mL"},
      {"measurement": "Compound (1) plasma T1/2, Max", "setting": "[4]", "result": 50.4, "unit": "min"},
      {"measurement": "Compound (1) plasma T1/2, Min", "setting": "[4]", "result": 22.2, "unit": "min"},
      {"measurement": "Compound (1) CL/F, Max", "setting": "[5]", "result": 684, "unit": "L/h"},
      {"measurement": "Compound (1) CL/F, Mean", "setting": "[5]", "result": 390, "unit": "L/h"},
      {"measurement": "Compound (1) CL/F, Median", "setting": "[5]", "result": 316, "unit": "L/h"},
      {"measurement": "Compound (1) CL/F, Min", "setting": "[5]", "result": 265, "unit": "L/h"},
      {"measurement": "Compound (1) plasma AUC0-inf, Max", "setting": "[5]", "result": 22700, "unit": "ng·h/mL"},
      {"measurement": "Compound (1) plasma AUC0-inf, Min", "setting": "[5]", "result": 8800, "unit": "ng·h/mL"},
      {"measurement": "Compound (1) plasma AUC0-tlast, Max", "setting": "[5]", "result": 22600, "unit": "ng·h/mL"},
      {"measurement": "Compound (1) plasma AUC0-tlast, Min", "setting": "[5]", "result": 8700, "unit": "ng·h/mL"},
      {"measurement": "Compound (1) plasma Cmax, Max", "setting": "[5]", "result": 28000, "unit": "ng/mL"},
      {"measurement": "Compound (1) plasma Cmax, Min", "setting": "[5]", "result": 10500, "unit": "ng/mL"},
      {"measurement": "Compound (1) plasma T1/2, Max", "setting": "[5]", "result": 30.6, "unit": "min"},
      {"measurement": "Compound (1) plasma T1/2, Min", "setting": "[5]", "result": 20.4, "unit": "min"},
      {"measurement": "Compound (1) plasma Tmax, Min", "setting": "[5]", "result": 19.8, "unit": "min"},
      {"measurement": "Compound (1) CL/F, Max", "setting": "Cohort 10 (6.0 g/day in a single dose), Dosing Day 10", "result": 575, "unit": "L/h"}
    ]}
  ]
}
